From patent EP0537070A1, “Compositions containing compound TMK688 and its analogs” (TERUMO KABUSHIKI KAISHA, priority 1991, dated 1993)

Experiment: Solubility in solvents (qualitative)
Type: physicochemical

CCOC(=O)Oc1ccc(/C=C/C=C/C(=O)NCCN2CCC(OC(c3ccccc3)c3ccccc3)CC2)cc1OC [TMK 688]
solubility (in acetone): can easily be dissolved | solubility (in acetonitrile): can be well dissolved | solubility (in dichloroethane): can easily be dissolved | solubility (in ethanol): cannot be dissolved well | solubility (in water): can hardly be dissolved
